In the NIST ThermoML archive (doi:10.1021/je0500375):
Numbers after ± are expanded uncertainties.

Assay: activity coefficient (dimensionless); of the first substance listed, at infinite dilution; xn = mol fraction of the nth substance listed
Conditions: 101.33 kPa, Liquid, Chromatography, x1 = 0

SMILES	activity coefficient (298.15 K)	activity coefficient (313.15 K)	activity coefficient (328.15 K)
C#CCCCC [1-hexyne] + CCCCCCCCOS(=O)(=O)[O-].CCCCn1cc[n+](C)c1	2.25 ± 0.15	2.38 ± 0.16	2.56 ± 0.17
CCCCCCCC [octane] + CCCCCCCCOS(=O)(=O)[O-].CCCCn1cc[n+](C)c1	9.63 ± 0.66	9.96 ± 0.68	10.3 ± 0.7
Cc1ccccc1 [toluene] + CCCCCCCCOS(=O)(=O)[O-].CCCCn1cc[n+](C)c1	1.98 ± 0.13	2.02 ± 0.14	2.08 ± 0.14
C#CCCCCC [1-heptyne] + CCCCCCCCOS(=O)(=O)[O-].CCCCn1cc[n+](C)c1	2.66 ± 0.18	2.85 ± 0.19	3.08 ± 0.21
c1ccccc1 [benzene] + CCCCCCCCOS(=O)(=O)[O-].CCCCn1cc[n+](C)c1	1.42 ± 0.09	1.44 ± 0.09	1.45 ± 0.1
CO [methanol] + CCCCCCCCOS(=O)(=O)[O-].CCCCn1cc[n+](C)c1	0.386 ± 0.033	0.369 ± 0.033	0.36 ± 0.033
C1CCCC1 [cyclopentane] + CCCCCCCCOS(=O)(=O)[O-].CCCCn1cc[n+](C)c1	4.09 ± 0.28	4.24 ± 0.29	4.39 ± 0.3
C#CCCCCCC [1-octyne] + CCCCCCCCOS(=O)(=O)[O-].CCCCn1cc[n+](C)c1	3.25 ± 0.22	3.42 ± 0.23	3.65 ± 0.25
C=CCCCCCC [oct-1-ene] + CCCCCCCCOS(=O)(=O)[O-].CCCCn1cc[n+](C)c1	7.38 ± 0.5	7.53 ± 0.51	7.88 ± 0.54
C=CCCCC [hex-1-ene] + CCCCCCCCOS(=O)(=O)[O-].CCCCn1cc[n+](C)c1	5.43 ± 0.37	5.76 ± 0.39	6.13 ± 0.42
CCCCCCC [heptane] + CCCCCCCCOS(=O)(=O)[O-].CCCCn1cc[n+](C)c1	8.27 ± 0.56	8.58 ± 0.59	9 ± 0.61
C1CCCCC1 [cyclohexane] + CCCCCCCCOS(=O)(=O)[O-].CCCCn1cc[n+](C)c1	4.92 ± 0.34	5.02 ± 0.34	5.17 ± 0.35
CCCCCC [hexane] + CCCCCCCCOS(=O)(=O)[O-].CCCCn1cc[n+](C)c1	7.21 ± 0.49	7.59 ± 0.52	7.98 ± 0.54
CCCCC [pentane] + CCCCCCCCOS(=O)(=O)[O-].CCCCn1cc[n+](C)c1	6.63 ± 0.45	7.14 ± 0.49	–
C1CCCCCC1 [cycloheptane] + CCCCCCCCOS(=O)(=O)[O-].CCCCn1cc[n+](C)c1	5.43 ± 0.37	5.52 ± 0.38	5.68 ± 0.39
ClC(Cl)(Cl)Cl [tetrachloromethane] + CCCCCCCCOS(=O)(=O)[O-].CCCCn1cc[n+](C)c1	1.65 ± 0.11	1.74 ± 0.12	1.85 ± 0.12
